Laboratory results reported in paper PMC6789174 (Drug Design, Development and Therapy, 2019).
≈ marks a conversion by molar mass, not a printed value.

Key:
[1] = DPPH free radical scavenging
[2] = ABTS free radical scavenging
Staphylococcus aureus = test: Anti-bacterial activity, agar well diffusion; format: cell-based
Butyrylcholinesterase = Butyrylcholinesterase (Homo sapiens, UniProt P06276); test: Anticholinesterase assay; format: biochemical
Proteus vulgaris = test: Anti-bacterial activity, agar well diffusion; format: cell-based
[3] = tested on: Agrobacterium tumefaction; test: Anti-bacterial activity, agar well diffusion; format: cell-based
Acetylcholinesterase = Acetylcholinesterase (Homo sapiens, UniProt P22303); test: biochemical
porcine α-amylase = molecular target: T1, porcine α-amylase (Sus scrofa, UniProt P00690); test: biochemical
T1 sequence (P00690 16-511): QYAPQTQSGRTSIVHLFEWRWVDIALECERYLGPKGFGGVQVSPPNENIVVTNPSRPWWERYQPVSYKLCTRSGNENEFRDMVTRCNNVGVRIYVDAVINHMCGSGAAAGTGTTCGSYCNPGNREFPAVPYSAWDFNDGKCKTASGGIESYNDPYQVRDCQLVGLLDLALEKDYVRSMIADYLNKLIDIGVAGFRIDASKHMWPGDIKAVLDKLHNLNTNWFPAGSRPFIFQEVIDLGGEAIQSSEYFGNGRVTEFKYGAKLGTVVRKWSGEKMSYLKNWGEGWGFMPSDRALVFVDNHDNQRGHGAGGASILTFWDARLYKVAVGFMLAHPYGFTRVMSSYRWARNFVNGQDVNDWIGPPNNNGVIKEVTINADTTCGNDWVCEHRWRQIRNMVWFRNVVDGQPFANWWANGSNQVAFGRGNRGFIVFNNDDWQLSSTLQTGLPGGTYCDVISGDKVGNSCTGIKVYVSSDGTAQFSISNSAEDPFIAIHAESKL

glucose-6-phosphatase = molecular target: T2, glucose-6-phosphatase (Homo sapiens, UniProt P35575); test: Glucose-6-phosphatase activity; format: biochemical; conditions: 33°C, pH 6.7, control 72.0
T2 sequence (P35575 1-357): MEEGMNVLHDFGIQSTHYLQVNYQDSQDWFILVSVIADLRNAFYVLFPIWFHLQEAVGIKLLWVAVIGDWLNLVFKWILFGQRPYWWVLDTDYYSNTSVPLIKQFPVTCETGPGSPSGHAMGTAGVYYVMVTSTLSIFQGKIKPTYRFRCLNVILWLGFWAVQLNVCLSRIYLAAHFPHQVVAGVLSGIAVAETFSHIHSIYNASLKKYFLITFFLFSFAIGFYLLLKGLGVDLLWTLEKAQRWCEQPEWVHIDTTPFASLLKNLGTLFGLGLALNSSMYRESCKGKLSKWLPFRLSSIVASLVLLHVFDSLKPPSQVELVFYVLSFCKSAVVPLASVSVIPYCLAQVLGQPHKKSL

[4] = read-out: ZI (Zone of inhibition), Staphylococcus aureus
[5] = read-out: %BChE Inhibition (mean ± SEM)
[6] = read-out: ZI (Zone of inhibition), Proteus vulgaris
[7] = read-out: ZI (Zone of inhibition), Agrobacterium tumefaction
[8] = read-out: %AChE Inhibition (mean ± SEM)

Sequence of Acetylcholinesterase (P22303 32-614, species assumed): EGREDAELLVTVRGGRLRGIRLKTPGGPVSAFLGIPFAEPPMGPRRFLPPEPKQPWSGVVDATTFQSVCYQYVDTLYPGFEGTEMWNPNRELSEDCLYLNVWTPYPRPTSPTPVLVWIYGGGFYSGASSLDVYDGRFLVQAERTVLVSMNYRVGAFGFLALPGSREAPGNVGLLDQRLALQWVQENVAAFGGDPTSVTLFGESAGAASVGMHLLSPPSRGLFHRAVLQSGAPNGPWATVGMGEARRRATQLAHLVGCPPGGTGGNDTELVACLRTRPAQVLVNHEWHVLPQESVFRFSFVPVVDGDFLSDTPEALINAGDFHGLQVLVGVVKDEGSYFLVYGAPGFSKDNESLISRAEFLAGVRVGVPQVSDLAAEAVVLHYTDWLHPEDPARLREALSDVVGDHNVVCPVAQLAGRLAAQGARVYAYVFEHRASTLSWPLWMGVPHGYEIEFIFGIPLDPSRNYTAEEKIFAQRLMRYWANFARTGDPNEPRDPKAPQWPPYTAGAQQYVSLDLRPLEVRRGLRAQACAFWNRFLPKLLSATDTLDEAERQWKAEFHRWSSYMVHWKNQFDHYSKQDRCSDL
Sequence of Butyrylcholinesterase (P06276 29-602): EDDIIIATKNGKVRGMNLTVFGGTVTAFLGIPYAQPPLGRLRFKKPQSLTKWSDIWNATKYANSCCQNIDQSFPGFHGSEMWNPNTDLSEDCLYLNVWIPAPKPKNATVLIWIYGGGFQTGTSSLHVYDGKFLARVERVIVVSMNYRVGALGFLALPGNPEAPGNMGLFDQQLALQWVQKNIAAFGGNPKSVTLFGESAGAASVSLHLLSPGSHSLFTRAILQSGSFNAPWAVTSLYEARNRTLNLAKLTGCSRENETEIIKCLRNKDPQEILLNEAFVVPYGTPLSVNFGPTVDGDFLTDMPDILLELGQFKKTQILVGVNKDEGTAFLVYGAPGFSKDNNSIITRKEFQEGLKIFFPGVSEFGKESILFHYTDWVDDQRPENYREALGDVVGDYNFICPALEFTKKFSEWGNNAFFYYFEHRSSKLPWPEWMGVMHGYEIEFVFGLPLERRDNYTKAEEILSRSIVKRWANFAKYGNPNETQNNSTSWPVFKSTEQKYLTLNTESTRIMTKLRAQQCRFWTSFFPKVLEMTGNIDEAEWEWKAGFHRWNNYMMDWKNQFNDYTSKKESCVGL

In the case of `O=C1O[C@H]([C@@H](O)CO)C(O)=C1O` [Ascorbic acid, reference compound], the “DPPH IC50” value [1] is reported as 35 µg/mL, the “DPPH % I (mean ± S.E.M)” value ([1]; concentration 125 μg/mL) is reported as 67.40±1.18% and the “DPPH % I (mean ± S.E.M)” value ([1]; concentration 250 μg/mL) is reported as 76.13±1.45%. The “DPPH % I (mean ± S.E.M)” value ([1]; concentration 500 μg/mL) was 85.11 ± 1.64%, the “DPPH % I (mean ± S.E.M)” value ([1]; concentration 1000 μg/mL) was 90.14 ± 0.76% and the “ABTS IC50” value [2] was 55 µg/mL. For the same compound, the “ABTS % I (mean ± S.E.M)” value ([2]; concentration 125 μg/mL) was 55.30 ± 1.75%, the “ABTS % I (mean ± S.E.M)” value ([2]; concentration 250 μg/mL) was 70.14 ± 1.16% and the “ABTS % I (mean ± S.E.M)” value ([2]; concentration 500 μg/mL) was 85.45 ± 1.36%. The “ABTS % I (mean ± S.E.M)” value ([2]; concentration 1000 μg/mL) was 88.17 ± 0.43%.

In the case of `S=C(NC(c1ccccn1)C(Cc1ccccc1)Cc1ccccc1)NC(c1ccccn1)C(Cc1ccccc1)Cc1ccccc1` (centres unmarked) [Compound I, 1,3-bis(2-benzyl-3-phenyl-1-(pyridine-2-yl)propyl)thiourea], the “DPPH IC50” value [1] is reported as 67 µg/mL, the “DPPH % I (mean ± S.E.M)” value ([1]; concentration 125 μg/mL) is reported as 78.55 ± 1.73% and the “DPPH % I (mean ± S.E.M)” value ([1]; concentration 250 μg/mL) is reported as 80.21 ± 1.21%. The “DPPH % I (mean ± S.E.M)” value ([1]; concentration 500 μg/mL) was 82.16 ± 1.01%, the “DPPH % I (mean ± S.E.M)” value ([1]; concentration 1000 μg/mL) was 86.67 ± 1.20% and the MIC (Staphylococcus aureus; read-out: MIC, Staphylococcus aureus) was 19.6 µg/mL (≈ 30.3 µM). It also gave a zone of inhibition at 10 µg/mL (Staphylococcus aureus; [4]) of 13 mm, a zone of inhibition at 20 µg/mL (Staphylococcus aureus; [4]) of 16 mm and a zone of inhibition at 30 µg/mL (Staphylococcus aureus; [4]) of 18 mm. It also gave an IC50 (Butyrylcholinesterase) of 309 µM, an inhibition at 125 µg/mL (Butyrylcholinesterase; [5]) of 48.1 ± 1.08% and an inhibition at 250 µg/mL (Butyrylcholinesterase; [5]) of 51.4 ± 2.05%. It also gave an inhibition at 500 µg/mL (Butyrylcholinesterase; [5]) of 56.3 ± 1.66%, an inhibition at 1000 µg/mL (Butyrylcholinesterase; [5]) of 57.81 ± 0.54% and an MIC (Proteus vulgaris; read-out: MIC, Proteus vulgaris) of 9.76 µg/mL (≈ 15.1 µM). For the same compound, the zone of inhibition at 10 µg/mL (Proteus vulgaris; [6]) was 15 mm, the zone of inhibition at 20 µg/mL (Proteus vulgaris; [6]) was 22 mm and the zone of inhibition at 30 µg/mL (Proteus vulgaris; [6]) was 24 mm. The MIC ([3]; read-out: MIC, Agrobacterium tumefaction) was 4.02 µg/mL (≈ 6.21 µM), the zone of inhibition at 10 µg/mL [3, 7] was 21 mm and the zone of inhibition at 20 µg/mL [3, 7] was 24 mm. For the same compound, the zone of inhibition at 30 µg/mL [3, 7] was 26 mm, the “ABTS IC50” value [2] was 66 µg/mL and the “ABTS % I (mean ± S.E.M)” value ([2]; concentration 125 μg/mL) was 77.55 ± 1.93%. For the same compound, the “ABTS % I (mean ± S.E.M)” value ([2]; concentration 250 μg/mL) was 78.21 ± 1.21%, the “ABTS % I (mean ± S.E.M)” value ([2]; concentration 500 μg/mL) was 80.16 ± 2.01% and the “ABTS % I (mean ± S.E.M)” value ([2]; concentration 1000 μg/mL) was 81.67 ± 1.20%. For the same compound, the IC50 (Acetylcholinesterase) was 1550 µM, the “%AChE Inhibition (mean ± SEM)” value (Acetylcholinesterase; concentration 500 μg/mL) was 55.59 ± 1.23% and the inhibition at 125 µg/mL (Acetylcholinesterase; [8]) was 38.6 ± 1.33%. The inhibition at 250 µg/mL (Acetylcholinesterase; [8]) was 46.1 ± 1.85%, the inhibition at 1000 µg/mL (Acetylcholinesterase; [8]) was 68.1 ± 1.4% and the IC50 (porcine α-amylase) was 130 µM. For the same compound, the inhibition at 125 µg/mL (porcine α-amylase; read-out: %Inhibition (mean ± SEM), alpha amylase, concentration 125 µg/mL) was 60.2 ± 1.03%, the inhibition at 250 µg/mL (porcine α-amylase; read-out: %Inhibition (mean ± SEM), alpha amylase, concentration 250 µg/mL) was 63.1 ± 1.41% and the inhibition at 500 µg/mL (porcine α-amylase; read-out: %Inhibition (mean ± SEM), alpha amylase, concentration 500 µg/mL) was 68.1 ± 0.87%. The inhibition at 1000 µg/mL (porcine α-amylase; read-out: %Inhibition (mean ± SEM), alpha amylase, concentration 1000 µg/mL) was 70.29 ± 0.31%, the “Total Activity of glucose-6-phosphatase” value (glucose-6-phosphatase; concentration 125 µg/mL) was 34.11 mg of P released per hour and the “Total Activity of glucose-6-phosphatase” value (glucose-6-phosphatase; concentration 250 µg/mL) was 31.62 mg of P released per hour. The “Total Activity of glucose-6-phosphatase” value (glucose-6-phosphatase; concentration 500 µg/mL) was 25.31 mg of P released per hour.
